We go through two compounds from US4808411A, “Antibiotic-polymer compositions” (Abbott Laboratories, priority 1987, dated 1989).

Values after ≈ are worked out from the molar mass of the structure shown.

Data set [1] in a line: Solubility of drug after stirring material providing approx. 20 mg/mL active drug for 24 hours in water (buffer for pure drugs). Type of data set: physicochemical.
Data set [2] can be described thus: Bioavailability of 6-O-methylerythromycin in dogs (Example 12). Type of data set: in vivo. The following applies: dog, blood, po, 250 mg 6-O-methylerythromycin, fasted, histamine. Here is the method:
All dogs were fasted overnight, and histamine was administered one hour prior to dosing with the test composition. […] Blood samples were drawn and assayed using a standard microbiological assay. All dogs were fed 12 hours after dosing.

Consider `CC[C@H]1OC(=O)[C@H](C)[C@@H](O[C@H]2C[C@@](C)(OC)[C@@H](O)[C@H](C)O2)[C@H](C)[C@@H](O[C@@H]2O[C@H](C)C[C@H](N(C)C)[C@H]2O)[C@](C)(OC)C[C@@H](C)C(=O)[C@H](C)[C@@H](O)[C@]1(C)O` [6-O--Methyl-ery, 6-O-methylerythromycin], for which the solubility at 24 h in data set [1] (pH 6.2, aqueous buffer) amounted to 7000 µg/mL (≈ 9360 µM); in data set [1] (pH 7, aqueous buffer), 1650 µg/mL (≈ 2210 µM); in data set [1] (pH 7.98, aqueous buffer), 134 µg/mL (≈ 179 µM). Moreover, in data set [2], the AUC(0-t) at 8 h was determined as 43500 ng·h/mL. The same compound showed a Cmax in data set [2] of 5370 ng/mL. In data set [2], the Tmax amounted to 1.33 h.

For `CC[C@H]1OC(=O)[C@H](C)[C@@H](O[C@H]2C[C@@](C)(OC)[C@@H](O)[C@H](C)O2)[C@H](C)[C@@H](O[C@@H]2O[C@H](C)C[C@H](N(C)C)[C@H]2O)[C@](C)(O)C[C@@H](C)C(=O)[C@H](C)[C@@H](O)[C@]1(C)O` [Erythromycin, erythromycin], the solubility at 24 h in data set [1] (pH 7.72, aqueous buffer) stood at 12200 µg/mL (≈ 16600 µM); in data set [1] (pH 8.24, aqueous buffer), 2120 µg/mL (≈ 2890 µM).

In general, solubility refers to the dissolved amount per volume that the medium holds. What is called AUC(0-t) is the area under the concentration-time curve up to a stated or last time point. A low value points to less exposure. As usually defined, the Cmax is the maximum level reached in the sampled fluid or tissue. A word on the Tmax: it is the time at which the peak concentration occurs.
